According to patent publication US6486322B1, “Azaindole derivatives, process for their preparation, and their use as antitumor agents” (Pharmacia Italia S.p.A., priority 2000, dated 2002):

Structure (SMILES) | melting point
O=C(O)C(=Cc1c[nH]c2ncccc12)c1ccccc1 [compound 300, 2-phenyl-3-(1H-pyrrolo[2,3-b]pyridin-3-yl)-2-propenoic acid] | > 230 °C
NC(=O)C(=Cc1c[nH]c2ncccc12)c1ccccc1 [compound 299, 2-phenyl-3-(1H-pyrrolo[2,3-b]pyridin-3-yl)-2-propenamide] | 222 to 224 °C
CCCCNC(=O)C(=Cc1c[nH]c2ncccc12)c1ccccc1 [compound 301, N-butyl-2-phenyl-3-(1H-pyrrolo[2,3-b]pyridin-3-yl)-2-propenamide] | 177 to 179 °C (dec.)
